Data on 1 molecule can be found in article PMC10709327, “A class of secreted mammalian peptides with potential to expand cell-cell communication” (Nature Communications, 2023).

The test system of this assay is diet-induced obese male mice. Put plainly: 3-day food intake and body weight under daily dosing. It is filed as in vivo, mouse. The settings on record: for Food Intake: 50 mg/kg. As to the method:
Fig. 5 Functional studies of […] in feeding and energy balance in mice. a Schematic of the primary amino acid sequence for full-length mouse GDF15 preproprotein and annotation of CAP-GDF15 sequence as well as the canonical GDF15 hormone sequence. b–d Food intake (b), respiratory exchange ratio (RER, c), and ambulatory activity (d) of 12–16-week diet-induced obese male mice following a single treatment of CAP-GDF15 (50 mg/kg, intraperitoneal) or vehicle control. e–g Food intake (e), RER (f), and ambulatory activity (g) of 12–16-week diet-induced obese male mice following a single treatment of scrambled CAP-GDF15 (50 mg/kg, intraperitoneal, scrambled sequence: pGlu-[…]-NH2) or vehicle control. h, i 3-day food intake (h) and body weight (i) of 12–16-week diet-induced obese male mice following treatment with CAP-GDF15 or scrambled CAP-GDF15 (50 mg/kg/day, IP), or vehicle control. Data are shown as means ± SEM. b–d, N = 12 mice/group; for e, f N = 8 mice/group; for h N = 7 food cages for vehicle and CAP-GDF15 groups and N = 5 for the scrambled peptide group; for i N = 14 mice for the vehicle group, N = 13 for the CAP-GDF15 group, and N = 5 for the scrambled peptide group. b–i injection occurred at time T = 0 (5:00 pm) and data were collected for the following 16 hrs. For (b-i), p values were calculated by two-way ANOVA. Source data are provided as a Source Data file.
Lastly, to determine whether the acute food intake suppressive effects of CAP-GDF15 would lead to long-term suppression of feeding and obesity, we administered CAP-GDF15 or scrambled CAP-GDF15 (50 mg/kg/day, IP), or vehicle control to diet-induced obese mice. Food intake and body weight were monitored over a three-day period. A durable suppression of food intake in CAP-GDF15-treated mice was over the three-day experiment (Vehicle, 7.3 ± 0.5 g/mouse; […], 4.1 ± 0.9 g/mouse/day, P < 0.05, Fig. 5h). Consequently, and as expected, an increasing reduction in body weight was also detected (Vehicle, +0.1 ± 0.3 g/mouse; CAP-GDF15, −1.9 ± 0.3 g/mouse, P < 0.001, Fig. 5i). Importantly, mice treated with the scrambled CAP-GDF15 peptide were indistinguishable in body weight or food intake from control mice (P > 0.05 versus vehicle-treated mice, Fig. 5h, i).
Animal experiments were performed according to a procedure approved by the Stanford University Administrative Panel on Laboratory Animal Care. Mice were maintained in 12-h light-dark cycles at 22 °C and about 50% relative humidity and fed a standard irradiated rodent diet. Where indicated, a high-fat diet (D12492, Research Diets 60% kcal from fat) was used. Male C57BL/6 J (stock number 000664) and male C57BL/6 J DIO mice were purchased from the Jackson Laboratory (stock number 380050). For studies in high-fat diet-fed mice, peptides were dissolved in 18:1:1 (by volume) of saline:Kolliphor EL (Sigma Aldrich):DMSO and administered to mice by intraperitoneal injections at a volume of 10 µl/g at the indicated doses for the indicated times. For lipopolysacchardide injection, LPS (Sigma, #L2880-10MG) was dissolved in saline and administered to mice at a volume of 5 µl/g at indicated dose. For fasting, food was removed from mice for 16 h. For running, a six-lane Columbus Instruments animal treadmill (product 1055-SRM-D65) was used with following 1 h protocol: 10 min at 6 m/min, 50 min at 18 m/min, and increase every 2 min by 2 m/min for the last 10 minutes, all at 12° incline. For all treatment experiments, mice were mock injected with the vehicle for 3–5 days until body weights were stabilized. Heparin plasma was harvested by submandibular bleed. For all experiments, mice were randomly assigned to treatment groups. Experimenters were not blinded to groups.

Where a SMILES comes first, the peptide text is derived from it. [ ]: non-standard residue; d: D form. pGlu = O=C1CC[C@@H](C(=O)O)N1

As to `CC(C)C[C@H](NC(=O)[C@@H]1CCC(=O)N1)C(=O)N[C@@H](CCC(=O)O)C(=O)N[C@@H](CC(C)C)C(=O)N[C@@H](CCCNC(=N)N)C(=O)N[C@@H](CC(C)C)C(=O)N[C@@H](CCCNC(=N)N)C(=O)N[C@H](C(=O)N[C@@H](C)C(=O)N[C@@H](C)C(=O)NCC(=O)N[C@@H](CCCNC(=N)N)C(N)=O)C(C)C` [CAP-GDF15] ([pGlu]LELRLRVAAGR-NH2), the “Food Intake” value is reported as 0.5 g (24 h, individual animal 1); 2.2 g (24 h, individual animal 2); 1.3 g (24 h, individual animal 3); 1.4 g (24 h, individual animal 4); 0.3 g (24 h, individual animal 5); 0.825 g (24 h, individual animal 6). In addition, the “Food Intake” value runs as follows: (24 h, individual animal 7) 0.525 g; (48 h, individual animal 1) 1.2 g; (48 h, individual animal 2) 5 g; (48 h, individual animal 3) 2.9 g; (48 h, individual animal 4) 4.1 g; (48 h, individual animal 5) 0.6 g. For the same molecule, the “Food Intake” value is, setting by setting: (48 h, individual animal 6) 1.8 g; (48 h, individual animal 7) 1.325 g; (72 h, individual animal 1) 2.9 g; (72 h, individual animal 2) 7.8 g; (72 h, individual animal 3) 4.9 g; (72 h, individual animal 4) 6.7 g. For the same molecule, the “Food Intake” value reads like this: (72 h, individual animal 5) 0.8 g; (72 h, individual animal 6) 2.95 g; (72 h, individual animal 7) 2.775 g. For the setting “50 mg/kg/day IP, diet-induced obese mice, mean ± SEM, N = 13 mice”, the “body weight change over three days” value is recorded as −1.9 ± 0.3 g/mouse.
